Experimental data: PMC10412597, “Small molecule branched-chain ketoacid dehydrogenase kinase (BDK) inhibitors with opposing effects on BDK protein levels” (Nature Communications, 2023)

Experiments:
Parameters in all cases: Invitrogen kinase panel, per cent inhibition of kinase activity
Conditions in all cases: 10 µM, inhibitor
HER4 = target: T1, HER4 (Homo sapiens, UniProt Q15303)
T1 construct: gene ERBB4
Description: (§1) To discover a potent and selective BDK inhibitor, a subset of the Pfizer compound collection was screened. […] Off target activity was assessed in both CEREP and kinase panels (Supplementary Tables 2, 3).

MAPK12 = MAPK12 (Homo sapiens, UniProt P53778)
Description: as §1

MAPKAPK5 = MAPKAPK5 (Homo sapiens, UniProt Q8IW41)
Description: as §1

MST4 = target: T2, MST4 (Homo sapiens, UniProt Q9P289)
T2 construct: gene STK26
Description: as §1

NTRK1 = NTRK1 (Homo sapiens, UniProt P04629)
Description: as §1

NUAK1 = NUAK1 (Homo sapiens, UniProt O60285)
Description: as §1

PDPK1 = target: T3, PDPK1 (Homo sapiens, UniProt O15530)
T3 sequence (O15530 1-556): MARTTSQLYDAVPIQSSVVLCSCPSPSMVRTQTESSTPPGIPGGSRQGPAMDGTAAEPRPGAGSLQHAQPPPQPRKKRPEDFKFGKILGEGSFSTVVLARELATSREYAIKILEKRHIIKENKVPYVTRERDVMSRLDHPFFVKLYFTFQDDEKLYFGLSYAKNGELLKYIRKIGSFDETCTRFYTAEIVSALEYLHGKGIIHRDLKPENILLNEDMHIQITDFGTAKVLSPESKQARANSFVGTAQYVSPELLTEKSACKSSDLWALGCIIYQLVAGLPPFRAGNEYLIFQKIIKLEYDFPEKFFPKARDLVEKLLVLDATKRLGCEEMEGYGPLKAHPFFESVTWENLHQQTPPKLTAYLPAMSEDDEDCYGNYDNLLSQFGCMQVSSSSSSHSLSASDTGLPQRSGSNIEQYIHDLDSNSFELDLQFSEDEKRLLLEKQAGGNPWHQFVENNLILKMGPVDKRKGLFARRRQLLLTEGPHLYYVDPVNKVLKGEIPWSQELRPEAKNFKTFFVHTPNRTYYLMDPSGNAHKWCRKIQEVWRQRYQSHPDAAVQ
Description: as §1

PIK3CG = PIK3CG (Homo sapiens, UniProt P48736)
Description: as §1

PIM-1 = target: T4, PIM-1 (Homo sapiens, UniProt P11309)
T4 construct: gene PIM1
Description: as §1

[1] = target: T5, Phosphorylase B kinase gamma catalytic chain skeletal muscle isoform (Homo sapiens, UniProt Q16816)
T5 construct: gene PHKG1
Description: as §1

ROCK2 = ROCK2 (Homo sapiens, UniProt O75116)
Description: as §1

TAOK2 = target: T6, TAOK2 (Homo sapiens, UniProt Q9UL54)
T6 sequence (Q9UL54 1-1235): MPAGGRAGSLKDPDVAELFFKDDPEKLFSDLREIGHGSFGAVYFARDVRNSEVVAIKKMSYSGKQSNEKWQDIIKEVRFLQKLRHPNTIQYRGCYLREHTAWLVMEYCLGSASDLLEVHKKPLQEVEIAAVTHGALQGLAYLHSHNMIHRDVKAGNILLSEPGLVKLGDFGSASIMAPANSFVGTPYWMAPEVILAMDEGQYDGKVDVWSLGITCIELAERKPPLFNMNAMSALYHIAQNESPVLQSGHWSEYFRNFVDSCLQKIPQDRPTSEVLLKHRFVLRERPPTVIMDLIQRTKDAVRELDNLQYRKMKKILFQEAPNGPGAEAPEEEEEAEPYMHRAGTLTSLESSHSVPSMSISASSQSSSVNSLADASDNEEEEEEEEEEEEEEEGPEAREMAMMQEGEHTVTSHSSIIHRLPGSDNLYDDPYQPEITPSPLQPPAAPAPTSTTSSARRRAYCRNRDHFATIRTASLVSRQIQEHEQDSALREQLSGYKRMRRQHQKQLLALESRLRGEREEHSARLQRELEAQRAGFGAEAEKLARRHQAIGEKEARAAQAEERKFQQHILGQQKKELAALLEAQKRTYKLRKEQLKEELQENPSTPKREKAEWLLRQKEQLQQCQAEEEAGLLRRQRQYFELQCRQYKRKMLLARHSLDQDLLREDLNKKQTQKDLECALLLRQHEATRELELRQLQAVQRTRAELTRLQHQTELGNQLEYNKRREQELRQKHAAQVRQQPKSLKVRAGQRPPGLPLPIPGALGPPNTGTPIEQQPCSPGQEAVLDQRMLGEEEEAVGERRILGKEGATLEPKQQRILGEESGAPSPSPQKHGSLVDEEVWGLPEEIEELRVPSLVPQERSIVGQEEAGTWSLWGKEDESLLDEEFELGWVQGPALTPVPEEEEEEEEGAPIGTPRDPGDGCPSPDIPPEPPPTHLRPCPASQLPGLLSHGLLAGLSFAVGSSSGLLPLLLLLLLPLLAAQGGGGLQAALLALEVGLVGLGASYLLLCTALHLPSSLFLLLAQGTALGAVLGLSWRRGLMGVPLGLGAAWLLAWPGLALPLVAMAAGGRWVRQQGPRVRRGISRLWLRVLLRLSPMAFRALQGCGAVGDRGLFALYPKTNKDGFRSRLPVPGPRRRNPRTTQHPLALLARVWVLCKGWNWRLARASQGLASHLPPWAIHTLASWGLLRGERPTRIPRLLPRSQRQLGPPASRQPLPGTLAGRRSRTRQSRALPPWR
Description: as §1

T2 sequence (Q9P289 whole entry): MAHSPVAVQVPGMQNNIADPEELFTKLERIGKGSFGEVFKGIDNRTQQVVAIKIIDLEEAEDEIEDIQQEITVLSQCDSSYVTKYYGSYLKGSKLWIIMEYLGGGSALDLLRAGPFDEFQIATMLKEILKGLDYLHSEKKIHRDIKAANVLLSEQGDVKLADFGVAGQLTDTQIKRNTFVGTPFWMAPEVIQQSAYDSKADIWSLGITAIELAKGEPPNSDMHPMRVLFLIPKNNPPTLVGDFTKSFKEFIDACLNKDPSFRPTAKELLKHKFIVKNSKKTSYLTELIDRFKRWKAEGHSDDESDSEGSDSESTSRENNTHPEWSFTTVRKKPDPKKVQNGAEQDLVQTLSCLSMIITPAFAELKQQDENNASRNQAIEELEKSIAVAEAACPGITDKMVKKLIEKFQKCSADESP
Sequence of NTRK1 (P04629 whole entry): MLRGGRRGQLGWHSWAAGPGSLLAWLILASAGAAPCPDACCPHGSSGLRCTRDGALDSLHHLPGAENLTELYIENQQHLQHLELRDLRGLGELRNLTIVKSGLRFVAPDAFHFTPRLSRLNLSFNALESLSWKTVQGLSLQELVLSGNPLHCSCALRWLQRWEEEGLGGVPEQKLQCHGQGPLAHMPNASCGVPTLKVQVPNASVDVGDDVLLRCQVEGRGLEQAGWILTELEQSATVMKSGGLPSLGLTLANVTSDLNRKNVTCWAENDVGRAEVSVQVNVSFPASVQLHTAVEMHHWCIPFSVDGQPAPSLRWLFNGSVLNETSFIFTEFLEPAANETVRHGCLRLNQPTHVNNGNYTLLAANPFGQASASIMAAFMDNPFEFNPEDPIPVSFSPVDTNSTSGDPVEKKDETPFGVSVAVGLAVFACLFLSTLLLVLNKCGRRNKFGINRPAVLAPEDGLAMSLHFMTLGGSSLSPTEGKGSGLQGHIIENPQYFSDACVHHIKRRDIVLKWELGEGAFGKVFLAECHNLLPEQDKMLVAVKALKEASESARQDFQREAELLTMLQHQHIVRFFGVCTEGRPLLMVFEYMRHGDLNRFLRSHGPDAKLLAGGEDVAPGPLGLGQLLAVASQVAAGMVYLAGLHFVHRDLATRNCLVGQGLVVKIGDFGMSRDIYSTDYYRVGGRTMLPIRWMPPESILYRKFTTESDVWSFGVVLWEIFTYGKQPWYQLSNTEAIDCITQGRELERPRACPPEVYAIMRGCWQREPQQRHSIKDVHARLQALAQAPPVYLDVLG
Sequence of MAPK12 (P53778 whole entry): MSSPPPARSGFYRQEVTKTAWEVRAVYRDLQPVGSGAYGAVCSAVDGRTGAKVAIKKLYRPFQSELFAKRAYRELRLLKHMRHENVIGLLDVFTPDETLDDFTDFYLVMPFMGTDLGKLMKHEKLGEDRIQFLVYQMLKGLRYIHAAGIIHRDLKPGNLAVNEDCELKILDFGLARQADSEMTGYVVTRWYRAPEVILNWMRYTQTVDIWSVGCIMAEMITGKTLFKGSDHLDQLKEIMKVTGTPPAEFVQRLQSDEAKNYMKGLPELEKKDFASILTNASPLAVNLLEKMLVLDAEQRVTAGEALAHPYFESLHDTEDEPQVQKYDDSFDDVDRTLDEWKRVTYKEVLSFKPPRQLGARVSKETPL
Sequence of MAPKAPK5 (Q8IW41 whole entry): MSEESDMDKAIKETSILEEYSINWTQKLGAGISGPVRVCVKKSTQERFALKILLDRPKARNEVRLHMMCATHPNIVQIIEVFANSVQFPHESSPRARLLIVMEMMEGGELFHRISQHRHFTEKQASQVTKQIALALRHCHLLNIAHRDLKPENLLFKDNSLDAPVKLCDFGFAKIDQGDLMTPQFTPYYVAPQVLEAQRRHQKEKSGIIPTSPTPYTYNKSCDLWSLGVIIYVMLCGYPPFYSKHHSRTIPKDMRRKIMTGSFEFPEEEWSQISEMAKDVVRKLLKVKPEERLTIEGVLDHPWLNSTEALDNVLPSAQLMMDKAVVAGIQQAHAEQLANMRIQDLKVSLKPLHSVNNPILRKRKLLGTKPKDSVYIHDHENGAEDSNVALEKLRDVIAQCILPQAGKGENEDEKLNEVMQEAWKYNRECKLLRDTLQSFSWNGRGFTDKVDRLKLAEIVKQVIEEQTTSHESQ
Sequence of ROCK2 (O75116 whole entry): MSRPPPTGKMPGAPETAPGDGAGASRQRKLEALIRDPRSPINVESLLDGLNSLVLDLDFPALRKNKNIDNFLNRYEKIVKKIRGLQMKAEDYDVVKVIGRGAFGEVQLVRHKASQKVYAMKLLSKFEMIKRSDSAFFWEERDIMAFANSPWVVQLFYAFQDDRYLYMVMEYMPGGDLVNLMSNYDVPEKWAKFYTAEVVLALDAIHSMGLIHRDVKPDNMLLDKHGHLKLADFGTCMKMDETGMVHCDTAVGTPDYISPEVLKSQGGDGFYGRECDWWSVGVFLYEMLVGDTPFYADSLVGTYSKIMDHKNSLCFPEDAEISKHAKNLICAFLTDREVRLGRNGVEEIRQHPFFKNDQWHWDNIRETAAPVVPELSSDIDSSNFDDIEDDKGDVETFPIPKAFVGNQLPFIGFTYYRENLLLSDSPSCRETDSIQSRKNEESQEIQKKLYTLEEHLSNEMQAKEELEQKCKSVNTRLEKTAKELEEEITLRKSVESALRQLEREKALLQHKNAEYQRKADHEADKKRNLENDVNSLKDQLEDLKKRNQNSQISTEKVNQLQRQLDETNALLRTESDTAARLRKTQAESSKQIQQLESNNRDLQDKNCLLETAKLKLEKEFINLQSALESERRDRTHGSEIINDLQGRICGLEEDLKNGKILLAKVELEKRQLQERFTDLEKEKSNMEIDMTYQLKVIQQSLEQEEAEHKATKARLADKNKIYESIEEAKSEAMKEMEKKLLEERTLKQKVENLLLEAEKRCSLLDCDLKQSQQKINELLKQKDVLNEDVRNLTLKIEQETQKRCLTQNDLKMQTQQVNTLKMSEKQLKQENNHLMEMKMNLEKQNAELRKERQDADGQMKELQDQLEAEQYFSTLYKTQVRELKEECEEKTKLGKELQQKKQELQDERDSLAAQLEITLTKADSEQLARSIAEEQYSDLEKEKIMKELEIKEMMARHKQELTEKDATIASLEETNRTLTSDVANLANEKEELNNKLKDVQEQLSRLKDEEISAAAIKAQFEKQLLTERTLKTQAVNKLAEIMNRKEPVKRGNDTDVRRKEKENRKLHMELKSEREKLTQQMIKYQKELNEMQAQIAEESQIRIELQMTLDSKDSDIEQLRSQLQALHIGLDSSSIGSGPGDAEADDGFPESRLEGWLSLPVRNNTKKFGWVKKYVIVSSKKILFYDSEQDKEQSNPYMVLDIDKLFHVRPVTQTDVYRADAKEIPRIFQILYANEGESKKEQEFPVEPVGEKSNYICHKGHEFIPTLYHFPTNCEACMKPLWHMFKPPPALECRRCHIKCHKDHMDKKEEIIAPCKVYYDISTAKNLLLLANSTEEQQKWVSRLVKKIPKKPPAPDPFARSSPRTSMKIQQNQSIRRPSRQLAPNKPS
Sequence of NUAK1 (O60285 whole entry): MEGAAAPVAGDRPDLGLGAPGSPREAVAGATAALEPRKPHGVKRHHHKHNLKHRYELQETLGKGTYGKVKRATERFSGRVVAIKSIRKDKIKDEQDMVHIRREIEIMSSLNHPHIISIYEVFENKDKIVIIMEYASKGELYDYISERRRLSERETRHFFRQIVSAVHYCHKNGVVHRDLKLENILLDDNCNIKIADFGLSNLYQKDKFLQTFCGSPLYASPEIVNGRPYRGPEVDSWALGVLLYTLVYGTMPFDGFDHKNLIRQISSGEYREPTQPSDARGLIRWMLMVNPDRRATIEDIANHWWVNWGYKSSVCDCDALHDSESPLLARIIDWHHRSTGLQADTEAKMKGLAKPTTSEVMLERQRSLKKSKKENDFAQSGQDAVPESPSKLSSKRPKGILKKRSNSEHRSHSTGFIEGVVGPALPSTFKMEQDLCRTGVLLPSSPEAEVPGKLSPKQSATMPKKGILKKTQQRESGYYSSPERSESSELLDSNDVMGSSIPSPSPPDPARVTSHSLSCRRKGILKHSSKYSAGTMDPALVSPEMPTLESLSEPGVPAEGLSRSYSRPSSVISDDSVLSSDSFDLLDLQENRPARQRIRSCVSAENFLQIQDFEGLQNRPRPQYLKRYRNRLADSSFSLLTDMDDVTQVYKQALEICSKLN
T5 sequence (Q16816 whole entry, canonical isoform): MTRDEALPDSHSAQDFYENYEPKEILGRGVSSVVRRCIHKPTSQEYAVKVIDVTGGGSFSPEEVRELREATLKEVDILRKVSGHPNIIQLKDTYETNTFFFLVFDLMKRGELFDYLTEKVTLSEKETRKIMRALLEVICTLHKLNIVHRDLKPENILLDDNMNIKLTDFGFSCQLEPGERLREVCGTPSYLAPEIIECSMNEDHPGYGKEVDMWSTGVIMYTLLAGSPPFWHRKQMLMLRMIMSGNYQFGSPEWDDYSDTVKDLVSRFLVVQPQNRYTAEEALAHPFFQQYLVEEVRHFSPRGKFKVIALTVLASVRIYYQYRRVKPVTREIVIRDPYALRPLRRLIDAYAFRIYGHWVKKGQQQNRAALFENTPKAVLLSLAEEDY
T4 sequence (P11309 whole entry): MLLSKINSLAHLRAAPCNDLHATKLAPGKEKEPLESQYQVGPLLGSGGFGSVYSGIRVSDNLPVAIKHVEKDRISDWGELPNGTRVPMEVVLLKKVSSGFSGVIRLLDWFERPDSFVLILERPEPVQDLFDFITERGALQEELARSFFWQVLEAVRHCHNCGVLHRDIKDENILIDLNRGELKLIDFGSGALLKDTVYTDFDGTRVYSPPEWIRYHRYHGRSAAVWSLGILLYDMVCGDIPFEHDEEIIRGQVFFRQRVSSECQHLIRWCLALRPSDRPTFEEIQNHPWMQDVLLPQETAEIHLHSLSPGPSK

O=C(O)c1sc2cc(F)sc2c1Cl [PF-07208254, 3-chloro-5-fluorothieno[3,2-b]thiophene-2-carboxylic acid]
ATP = Km % Inhibition PF-07208254 (HER4): -11.4% | ATP = Km % Inhibition PF-07208254 (MAPK12): 13.3% | ATP = Km % Inhibition PF-07208254 (MAPKAPK5): 6.6% | ATP = 1 mM % Inhibition PF-07208254 (MST4): 3.7% | ATP = Km % Inhibition PF-07208254 (MST4): 16.7% | ATP = 1 mM % Inhibition PF-07208254 (NTRK1): 5.8% | ATP = Km % Inhibition PF-07208254 (NTRK1): 5.6% | ATP = Km % Inhibition PF-07208254 (NUAK1): 10.3% | ATP = 1 mM % Inhibition PF-07208254 (PDPK1): -3.1% | ATP = Km % Inhibition PF-07208254 (PDPK1): -3.2% | ATP = Km % Inhibition PF-07208254 (PIK3CG): 4.8% | ATP = Km % Inhibition PF-07208254 (PIM-1): 44.5% | ATP = Km % Inhibition PF-07208254 [1]: 1.8% | ATP = Km % Inhibition PF-07208254 (ROCK2): -5.8% | ATP = 1 mM % Inhibition PF-07208254 (TAOK2): 1.4% | ATP = Km % Inhibition PF-07208254 (TAOK2): -2.5%

CCC1(COc2ccc(-c3csc(-c4ccccc4C(=O)O)n3)cn2)CC1 [PF-07247685, 2-(4-{6-[(1-ethylcyclopropyl)methoxy]pyridin-3-yl}-1,3-thiazol-2-yl)benzoic acid]
ATP = Km % Inhibition PF-07247685 (HER4): 7.2% | ATP = Km % Inhibition PF-07247685 (MAPK12): 4.6% | ATP = Km % Inhibition PF-07247685 (MAPKAPK5): 2.3% | ATP = 1 mM % Inhibition PF-07247685 (MST4): -2.9% | ATP = Km % Inhibition PF-07247685 (MST4): 2.9% | ATP = 1 mM % Inhibition PF-07247685 (NTRK1): 10.0% | ATP = Km % Inhibition PF-07247685 (NTRK1): 14.5% | ATP = Km % Inhibition PF-07247685 (NUAK1): -18.2% | ATP = 1 mM % Inhibition PF-07247685 (PDPK1): 2.0% | ATP = Km % Inhibition PF-07247685 (PDPK1): -0.6% | ATP = Km % Inhibition PF-07247685 (PIK3CG): -4.6% | ATP = Km % Inhibition PF-07247685 (PIM-1): -2.6% | ATP = Km % Inhibition PF-07247685 [1]: 2.2% | ATP = Km % Inhibition PF-07247685 (ROCK2): 5.5% | ATP = 1 mM % Inhibition PF-07247685 (TAOK2): -1.8% | ATP = Km % Inhibition PF-07247685 (TAOK2): -4.7%
